Reference: paper PMC7413254 (Nature Communications, 2020)
Where two headings read alike, the source gives them in different places.

Columns and labels:
PfCRT^Dd2 [1] = molecular target: T1, PfCRT^Dd2 (Plasmodium falciparum, UniProt Q9N623, A220S/I356T/K76T/M74I/N326S/N75E/Q271E/R371I); test: cell-based; settings: mean ± SEM, n = 5, SEM
Procedure: (§1) The characterisation of [^3H]VF-6 transport via 23 different field and laboratory-derived isoforms of PfCRT was undertaken with oocytes two days post-cRNA-injection (Figs. 3a–j, 4; Supplementary Fig. 2). The oocytes were injected with 25 nL of ND96 buffer (pH 5.5) supplemented with [^3H]VF-6 and unlabelled VF-6 to achieve estimated intracellular concentrations of 1.4 and 200 μM, respectively. Ten oocytes that had resealed at the injection site were transferred to a 5 mL polystyrene round bottom tube (In Vitro Technologies) and washed with 3.5 mL of ND96 buffer before being transferred to separate wells of a white 96-well plate (PerkinElmer). This treatment served to establish the amount of radioactivity within the oocytes immediately prior to the commencement of the transport assay. Another 10 resealed oocytes were transferred to a 5 mL tube and washed with 3.5 mL of ND96 buffer. […] The assay was terminated by removing the reaction buffer with a pipette and washing the oocytes twice with 3.5 mL of ice-cold ND96 buffer. Each oocyte was transferred to a separate well of a white 96-well plate. The oocytes were lysed by the addition of 20 μL of 10% (w/v) SDS and overnight incubation at room temperature. The lysed oocyte was then combined with 150 μL of MicroScint-40 microscintillant (PerkinElmer), the plate covered with a TopSeal-A (PerkinElmer), and the radioactivity measured with a MicroBeta^2 microplate liquid scintillation analyser (PerkinElmer). VF-6 transport was calculated by subtracting the amount of radioactivity (measured in counts per minute) present within the oocytes at the end of the incubation from that measured in the oocytes sampled immediately before the commencement of the assay. The pH-dependence of transport (Fig. 3c) was determined by injecting the oocytes with [^3H]VF-6 suspended in 25 nL ND96 buffer adjusted to pH 5.0, 5.5, 6.0 or 7.0, which corresponded to the injection of 2.5–250 fmol of H^+. The dependence of [^3H]VF-6 transport on Na^+ or Cl^− was examined by injecting the oocytes with [^3H]VF-6 suspended in the control ND96 buffer (pH 5.5) or a version of this buffer that lacked either Na^+ or Cl^− (Supplementary Fig. 2). […] The dependence of peptide transport on Ca^2+ was determined by injecting the oocytes with [^3H]VF-6 suspended in ND96 buffers that contained different concentrations of Ca^2+ (0–5 mM; Supplementary Fig. 2). […] The dependence of PfCRT-mediated transport on the membrane potential was examined by using (1) Na^+ ionophore III in conjunction with the Na^+ gradients listed in Supplementary Data 7 and (2) Cl^− ionophore III in conjunction with the Cl^− gradients listed in Supplementary Data 7 to clamp the membrane potential of the oocyte from −80 to +80 mV. […] The kinetic parameters for VF-6 transport via different isoforms of PfCRT (Figs. 3e and 4a) were determined in SigmaPlot Windows Version 11.0 by a least-squares fit of the Michaelis–Menten equation to the data.
(§2) A subset of assays measured the ability of solutes known to interact with PfCRT to either cis-inhibit, trans-inhibit or trans-stimulate [^3H]VF-6 transport. These experiments involved adding these solutes to either the cis- or trans-side of the membrane relative to [^3H]VF-6. […] At least five independent experiments were performed (on different days and using oocytes from different frogs), and within each experiment measurements were made from ten oocytes per treatment.

PfCRT^3D7 [2] = molecular target: T2, PfCRT^3D7 (Plasmodium falciparum, UniProt Q8IBZ9); test: cell-based; settings: mean ± SEM, n = 5, SEM
T2 sequence (Q8IBZ9 59-398): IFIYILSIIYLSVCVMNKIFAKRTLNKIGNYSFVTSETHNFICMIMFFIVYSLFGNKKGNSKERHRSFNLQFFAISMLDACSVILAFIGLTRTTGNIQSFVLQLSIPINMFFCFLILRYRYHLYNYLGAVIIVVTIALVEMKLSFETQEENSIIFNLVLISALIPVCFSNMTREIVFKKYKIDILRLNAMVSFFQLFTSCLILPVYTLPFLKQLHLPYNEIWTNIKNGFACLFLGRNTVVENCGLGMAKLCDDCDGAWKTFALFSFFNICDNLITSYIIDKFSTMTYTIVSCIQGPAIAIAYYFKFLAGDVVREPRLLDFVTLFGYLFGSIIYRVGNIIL
Procedure: as §1, §2

PfCRT^Ecu1110 [3] = molecular target: T3, PfCRT^Ecu1110 (Plasmodium falciparum, UniProt Q9N623, A220S/I356L/K76T/N326D); test: cell-based; settings: mean ± SEM, n = 5, SEM
T3 sequence (Q9N623 whole entry A220S/I356L/K76T/N326D): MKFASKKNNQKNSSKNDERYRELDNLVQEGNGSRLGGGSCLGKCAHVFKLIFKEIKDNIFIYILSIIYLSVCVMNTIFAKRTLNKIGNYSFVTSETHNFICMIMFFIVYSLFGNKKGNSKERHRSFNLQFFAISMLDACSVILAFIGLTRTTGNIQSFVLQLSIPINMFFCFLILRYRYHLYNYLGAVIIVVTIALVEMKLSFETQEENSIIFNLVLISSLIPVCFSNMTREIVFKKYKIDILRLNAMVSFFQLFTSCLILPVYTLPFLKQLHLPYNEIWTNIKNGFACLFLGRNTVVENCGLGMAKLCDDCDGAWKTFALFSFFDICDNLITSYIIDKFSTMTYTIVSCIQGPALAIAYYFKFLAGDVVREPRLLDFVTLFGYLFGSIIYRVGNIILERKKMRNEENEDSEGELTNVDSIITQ
Procedure: as §1, §2

PfCRT^Dd2 [4] = molecular target: T1, PfCRT^Dd2; test: [3H]CQ uptake into Xenopus oocytes, cis-inhibition by unlabelled solute; format: cell-based; settings: PfCRTDd2 oocytes, background [3H]CQ accumulation subtracted, normalised to oocyte type control
Outline: (§3)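 Inward transport into oocyte cytosol from pH 5.5 medium models PfCRT efflux from the acidic digestive vacuole. Incubation 1.5 h, 27.5 °C; termination by ice-cold washes; lysate radioactivity counted.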

PfCRT^Ecu1110 [5] = molecular target: T3, PfCRT^Ecu1110; test: as above; format: cell-based; settings: for PfCRT-mediated [3H]CQ transport, cis-inhibition (% PfCRTEcu1110 control): PfCRTEcu1110 oocytes, background [3H]CQ accumulation subtracted, normalised to oocyte type control; for [3H]CQ transport (% PfCRTEcu1110 control), cis-inhibition, PfCRTEcu1110: PfCRT-mediated component (background subtracted), sheet title says normalised to PfCRTDd2 control, mean ± SEM, SEM
Outline: as §3

PfCRT = test: Potential co-substrates tested for influx of VF-6 via PfCRT into the oocyte; format: cell-based, Plasmodium falciparum; set-up: key: X: Compounds that have been tested as potential co-substrates but are not required for influx of VF-6 via PfCRT into the oocyte
PfCRT^Dd2 [6] = molecular target: T1, PfCRT^Dd2; test: cell-based; format: cell-based; settings: for PfCRT-mediated [3H]CQ transport, trans-stimulation (% PfCRTDd2 control): PfCRTDd2 oocytes, normalised to oocyte type control; for [3H]CQ transport (% PfCRTDd2 control), trans-stimulation, PfCRTDd2: PfCRT-mediated component (background subtracted), mean ± SEM, SEM
Outline: (§4)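 Oocytes (ten per treatment, ≥4 independent frogs/days) were preloaded by injecting VF-6 in 25 nL ND96 at pH 5.0, 5.5, 6.0 or 7.0, or Na^+-free choline buffer, then uptake run 1.5 h, 27.5 °C, ND96 pH 5.5 by default. Internal concentrations assumed ~400 nL oocyte volume.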

PfCRT^3D7 [7] = molecular target: T2, PfCRT^3D7; test: cell-based; format: cell-based; settings: PfCRT3D7 oocytes, normalised to oocyte type control
Outline: as §4

PfCRT^Ecu1110 [8] = molecular target: T3, PfCRT^Ecu1110; test: cell-based; format: cell-based; settings: for PfCRT-mediated [3H]CQ transport, trans-stimulation (% PfCRTEcu1110 control): PfCRTEcu1110 oocytes, normalised to oocyte type control; for [3H]CQ transport (% PfCRTDd2 control), trans-stimulation, PfCRTEcu1110: PfCRT-mediated component (background subtracted), sheet title says normalised to PfCRTDd2 control, mean ± SEM, SEM
Outline: as §4

[9] = [test solute]i = 5 mM (intracellular)
[10] = [test solute]i = 45 mM (intracellular; 30 mM for some solutes due to solubility)
[11] = [test solute]i = 5 mM (injected)
[12] = [test solute]i = 45 mM (30 mM for some solutes due to solubility)

T1 sequence (Q9N623 whole entry A220S/I356T/K76T/M74I/N326S/N75E/Q271E/R371I, canonical isoform): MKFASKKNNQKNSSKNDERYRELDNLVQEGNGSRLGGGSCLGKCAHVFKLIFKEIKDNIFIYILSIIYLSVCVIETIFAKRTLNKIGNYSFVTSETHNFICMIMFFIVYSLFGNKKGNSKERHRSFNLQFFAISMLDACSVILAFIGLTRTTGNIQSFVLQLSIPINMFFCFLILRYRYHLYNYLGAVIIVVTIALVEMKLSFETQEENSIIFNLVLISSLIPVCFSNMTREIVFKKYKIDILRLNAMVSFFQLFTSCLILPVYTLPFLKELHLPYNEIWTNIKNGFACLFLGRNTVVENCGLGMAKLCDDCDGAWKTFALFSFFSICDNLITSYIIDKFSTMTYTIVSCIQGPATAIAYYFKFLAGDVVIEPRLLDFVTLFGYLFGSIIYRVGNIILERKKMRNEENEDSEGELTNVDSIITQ

Compound | PfCRT-mediated [3H]CQ transport, cis-inhibition (% PfCRTDd2 control) (PfCRT^Dd2 [4]; [test solute] = 0.5 mM) | PfCRT-mediated [3H]CQ transport, cis-inhibition (% PfCRTDd2 control) (PfCRT^Dd2 [4]; [test solute] = 1 mM) | PfCRT-mediated [3H]CQ transport, cis-inhibition (% PfCRTDd2 control) (PfCRT^Dd2 [4]; [test solute] = 2 mM) | PfCRT-mediated [3H]CQ transport, cis-inhibition (% PfCRTEcu1110 control) (PfCRT^Ecu1110 [5]; [test solute] = 0.5 mM) | PfCRT-mediated [3H]CQ transport, cis-inhibition (% PfCRTEcu1110 control) (PfCRT^Ecu1110 [5]; [test solute] = 1 mM) | PfCRT-mediated [3H]CQ transport, cis-inhibition (% PfCRTEcu1110 control) (PfCRT^Ecu1110 [5]; [test solute] = 2 mM) | [3H]CQ transport (% PfCRTEcu1110 control), cis-inhibition, PfCRTEcu1110 (PfCRT^Ecu1110 [5]; [test solute] = 2 mM) [% PfCRTEcu1110 control] | Tested as potential co-substrate but not required for influx of VF-6 via PfCRT into the oocyte (PfCRT) | PfCRT-mediated [3H]CQ transport, trans-stimulation (% PfCRTDd2 control) (PfCRT^Dd2 [6]; [9]) | PfCRT-mediated [3H]CQ transport, trans-stimulation (% PfCRTDd2 control) (PfCRT^Dd2 [6]; [10]) | [3H]CQ transport (% PfCRTDd2 control), trans-stimulation, PfCRTDd2 (PfCRT^Dd2 [6]; [11]) [% PfCRTDd2 control] | [3H]CQ transport (% PfCRTDd2 control), trans-stimulation, PfCRTDd2 (PfCRT^Dd2 [6]; [12]) [% PfCRTDd2 control] | PfCRT-mediated [3H]CQ transport, trans-stimulation (% PfCRT3D7 control) (PfCRT^3D7 [7]; [9]) | PfCRT-mediated [3H]CQ transport, trans-stimulation (% PfCRT3D7 control) (PfCRT^3D7 [7]; [10]) | PfCRT-mediated [3H]CQ transport, trans-stimulation (% PfCRTEcu1110 control) (PfCRT^Ecu1110 [8]; [9]) | PfCRT-mediated [3H]CQ transport, trans-stimulation (% PfCRTEcu1110 control) (PfCRT^Ecu1110 [8]; [10]) | [3H]CQ transport (% PfCRTDd2 control), trans-stimulation, PfCRTEcu1110 (PfCRT^Ecu1110 [8]; [11]) [% PfCRTEcu1110 control] | [3H]CQ transport (% PfCRTDd2 control), trans-stimulation, PfCRTEcu1110 (PfCRT^Ecu1110 [8]; [12]) [% PfCRTEcu1110 control] | other results
CN(C)CCC(c1ccc(Cl)cc1)c1ccccn1 (stereo not shown) [CP, chlorpheniramine, reference compound] | – | – | – | – | – | – | – | – | – | – | – | – | – | – | – | – | – | – | IC50 (PfCRT^Dd2 [1]; Cis-inhibition IC50 of [3H]VF-6 transport, PfCRTDd2, drug on same side as [3H]VF-6): 5 ± 1.1 µM; IC50 (PfCRT^Dd2 [1]; Trans-inhibition IC50 of [3H]VF-6 transport, PfCRTDd2, drug on opposite side to [3H]VF-6): 8.8 ± 0.3 µM; IC50 (PfCRT^3D7 [2]; drug on opposite side to [3H]VF-6, read-out: Trans-inhibition IC50 of [3H]VF-6 transport, PfCRT3D7): 12 ± 0.7 µM; IC50 (PfCRT^3D7 [2]; drug on same side as [3H]VF-6, read-out: Cis-inhibition IC50 of [3H]VF-6 transport, PfCRT3D7): 9.8 ± 0.5 µM; IC50 (PfCRT^Ecu1110 [3]; Cis-inhibition IC50 of [3H]VF-6 transport, PfCRTEcu1110, drug on same side as [3H]VF-6): 6.2 ± 0.3 µM; IC50 (PfCRT^Ecu1110 [3]; Trans-inhibition IC50 of [3H]VF-6 transport, PfCRTEcu1110, drug on opposite side to [3H]VF-6): 7.2 ± 0.2 µM
DPVNF [DF-5] | 38 ± 3.1 | 27 ± 0.9 | 15 ± 0.5 | 40 ± 2.1 | 32 ± 1.6 | 21 ± 1.0 | 7.0 ± 0.1 | X | 101 ± 3.5 | 113 ± 1.2 | 101 ± 3.5 | 113 ± 1.2 | 128 ± 3.1 | 158 ± 4.2 | 120 ± 2.4 | 128 ± 2.9 | 36 ± 1.3 | 39 ± 1.8 | –
VDPVN [VN-5] | 42 ± 2.7 | 30 ± 3.0 | 19 ± 0.3 | 52 ± 1.8 | 38 ± 2.6 | 27 ± 0.5 | 9.0 ± 0.2 | X | 101 ± 3.5 | 112 ± 1.4 | 101 ± 3.5 | 112 ± 1.4 | 131 ± 4.6 | 181 ± 5.7 | 128 ± 3.6 | 136 ± 3.5 | 39 ± 1.5 | 41 ± 1.9 | [3H]CQ transport (% PfCRTEcu1110 control), cis-inhibition, PfCRTEcu1110 (PfCRT^Ecu1110 [5]; [test solute] = 0.5 mM): 16 ± 0.4 % PfCRTEcu1110 control
